The source of these data is publication PMC12042115 (mLife, 2025).

This experiment has as its system wild‐type BCG cells. The format is cell-based, M. bovis BCG. The settings on record: protein A0A0H3MG19, BCG_2669 (Rv2642), Arsenical resistance operon repressor; down-regulated; 3 d.

`O=C(Oc1ccc(Cl)cc1)c1ccc(N2CCOCC2)c([N+](=O)[O-])c1` [GDI‐5755]: the “Mean_Ratio (GDI5755_3d vs DMSO_3d)” value is recorded as 0.7.
